# Literature values, collected in PubChem BioAssay AID1259409 (Chemical Carcinogenesis Research Information System (CCRIS), 2018).
# Tested on: rodent chemically induced tumor inhibition, incidence and multiplicity
# Test: CCRIS tumor inhibitor studies
smiles,measurement,setting,value
COc1ccc2c(c1)c(CC(=O)O)c(C)n2C(=O)c1ccc(Cl)cc1,"tumour outcome (control, treated, inhibition, significance)","Carcinogen: METHYLAZOXYMETHANOL, 590-96-5, Dose [Inhibitor]: 7.5 MG/KG BW DAILY FOR 3 WK STARTING 27 WK AFTER THE START OF CARCINOGEN TREATMENT (STUDY DURATION: 30 WK), Route [Inhibitor]: INTRARECTAL, Species: RAT, Strain/Sex: DONRYU/MALE, Target Tissue: Type of Lesion: SMALL INTESTINE: ADENOCARCINOMA, Dose [Carcinogen]: 20 MG/KG BW 1/WK FOR 6 WK, Promoter: NONE USED","10/23 (43%), 4/30 (13%), 70%, p<0.05"
same,"tumour outcome (control, treated, inhibition, significance)","Carcinogen: N,N-DIETHYLNITROSAMINE, 55-18-5, Dose [Inhibitor]: 0.016 MG/ML IN DRINKING WATER 3/WK FOR 4 MO STARTING 4 MO AFTER THE START OF CARCINOGEN TREATMENT AND CONTINUING FOR DUR, Route [Inhibitor]: ORAL, Species: MOUSE, Strain/Sex: C57BL/MALE, Target Tissue: Type of Lesion: ESOPHAGUS: TUMOR, Dose [Carcinogen]: 0.04 ML/1000 ML DRINKING WATER DAILY FOR 30 D THEN EVERY SECOND WK TO COMPLETE 5 MO PERIOD, Promoter: NONE USED","16/16 (100%), 19/19 (100%), 0%, not significant"
same,"tumour outcome (control, treated, inhibition, significance)","Carcinogen: N,N-DIETHYLNITROSAMINE, 55-18-5, Dose [Inhibitor]: 0.016 MG/ML IN DRINKING WATER GIVEN TOGETHER WITH CARCINOGEN STARTING AT THE BEGINNING OF THE STUDY DAILY FOR 14 D AND 3, Route [Inhibitor]: ORAL, Species: MOUSE, Strain/Sex: C57BL/MALE, Target Tissue: Type of Lesion: ESOPHAGUS: TUMOR, Dose [Carcinogen]: 0.04 ML/1000 ML DRINKING WATER DAILY FOR 14 D THEN 3 D/WK FOR DURATION OF STUDY, Promoter: NONE USED","24/24 (100%), 45/45 (100%), 0%, not significant"
same,"tumour outcome (control, treated, inhibition, significance)","Carcinogen: N,N-DIETHYLNITROSAMINE, 55-18-5, Dose [Inhibitor]: 0.016 MG/ML IN DRINKING WATER GIVEN TOGETHER WITH CARCINOGEN STARTING AT THE BEGINNING OF THE STUDY DAILY FOR 30 D THEN, Route [Inhibitor]: ORAL, Species: MOUSE, Strain/Sex: C57BL/MALE, Target Tissue: Type of Lesion: ESOPHAGUS: TUMOR, Dose [Carcinogen]: 0.04 ML/1000 ML DRINKING WATER GIVEN TOGETHER WITH AGENT, Promoter: NONE USED","8/8 (100%), 16/16 (100%), 0%, not significant"
same,"tumour outcome (control, treated, inhibition, significance)","Carcinogen: N-BUTYL-N-(4-HYDROXYBUTYL)NITROSAMINE, 3817-11-6, Dose [Inhibitor]: 0, 7.5 MG/KG DIET BEGINNING 1 WK PRIOR TO CARCINOGEN TREATMENT AND CONTINUING FOR DURATION OF STUDY (STUDY DURATION: 187, Route [Inhibitor]: ORAL, Species: MOUSE, Strain/Sex: BDF/MALE, Target Tissue: Type of Lesion: URINARY BLADDER: TUMOR, Dose [Carcinogen]: 7.5 MG IN 0.1 ML OF ETHANOL:WATER (20:80) 1/WK FOR 8 WK, Promoter: NONE USED","24%, 5%, 79%, p<0.05"
same,"tumour outcome (control, treated, inhibition, significance)","Carcinogen: N-BUTYL-N-(4-HYDROXYBUTYL)NITROSAMINE, 3817-11-6, Dose [Inhibitor]: 0, 15 MG/KG DIET BEGINNING 1 WK PRIOR TO CARCINOGEN TREATMENT AND CONTINUING FOR DURATION OF STUDY (STUDY DURATION: 187, Route [Inhibitor]: ORAL, Species: MOUSE, Strain/Sex: BDF/MALE, Target Tissue: Type of Lesion: URINARY BLADDER: TUMOR, Dose [Carcinogen]: 7.5 MG IN 0.1 ML OF ETHANOL:WATER (20:80) 1/WK FOR 8 WK, Promoter: NONE USED","24%, 0%, 100%, p<0.01"
same,"tumour outcome (control, treated, inhibition, significance)","Carcinogen: N-BUTYL-N-(4-HYDROXYBUTYL)NITROSAMINE, 3817-11-6, Dose [Inhibitor]: 0, 20 PPM IN DRINKING WATER FOR 20 WK BEGINNING POST PROMOTER TREATMENT (STUDY DURATION: 44 WK), Route [Inhibitor]: ORAL, Species: RAT, Strain/Sex: F344/MALE, Target Tissue: Type of Lesion: URINARY BLADDER: PAPILLOMA, Dose [Carcinogen]: 0.05% IN DRINKING WATER FOR 4 WK, Promoter: BUTYLATED HYDROXYANISOLE, 25013-16-5","6/15 (40%), 9/15 (60%), -50%, not significant"
same,"tumour outcome (control, treated, inhibition, significance)","Carcinogen: N-BUTYL-N-(4-HYDROXYBUTYL)NITROSAMINE, 3817-11-6, Dose [Inhibitor]: 0, 20 PPM IN DRINKING WATER FOR 20 WK BEGINNING POST PROMOTER TREATMENT (STUDY DURATION: 44 WK), Route [Inhibitor]: ORAL, Species: RAT, Strain/Sex: F344/MALE, Target Tissue: Type of Lesion: URINARY BLADDER: PAPILLOMA, Dose [Carcinogen]: 0.05% IN DRINKING WATER FOR 4 WK, Promoter: SODIUM L-ASCORBATE, 134-03-2","10/15 (67%), 10/15 (67%), 0%, not significant"
same,"tumour outcome (control, treated, inhibition, significance)","Carcinogen: N-BUTYL-N-(4-HYDROXYBUTYL)NITROSAMINE, 3817-11-6, Dose [Inhibitor]: 0, 20 PPM IN DRINKING WATER FOR 20 WK BEGINNING POST PROMOTER TREATMENT (STUDY DURATION: 44 WK), Route [Inhibitor]: ORAL, Species: RAT, Strain/Sex: F344/MALE, Target Tissue: Type of Lesion: URINARY BLADDER: TRANSITIONAL CELL CARCINOMA, Dose [Carcinogen]: 0.05% IN DRINKING WATER FOR 4 WK, Promoter: BUTYLATED HYDROXYANISOLE, 25013-16-5","3/15 (20%), 3/15 (20%), 0%, not significant"
same,"tumour outcome (control, treated, inhibition, significance)","Carcinogen: N-BUTYL-N-(4-HYDROXYBUTYL)NITROSAMINE, 3817-11-6, Dose [Inhibitor]: 0, 20 PPM IN DRINKING WATER FOR 20 WK BEGINNING POST PROMOTER TREATMENT (STUDY DURATION: 44 WK), Route [Inhibitor]: ORAL, Species: RAT, Strain/Sex: F344/MALE, Target Tissue: Type of Lesion: URINARY BLADDER: TRANSITIONAL CELL CARCINOMA, Dose [Carcinogen]: 0.05% IN DRINKING WATER FOR 4 WK, Promoter: SODIUM L-ASCORBATE, 134-03-2","6/15 (40%), 2/15 (13%), 67%, not significant"
